# Experimental data: article PMC2788680 (Journal of medicinal chemistry, 2009)
# “Also recorded” adds a separate entry of the source. Like-named read-outs stand apart in the source and are kept apart here. Numbered stars: 1 amine (or outer) side, 2 acyl side, 3 side chain; on linkers, the order of the positions; unused ones are H or OH. Bridge positions count the residues as written; N and C are the ends. Square brackets hold non-standard residues; d marks the D form. Peptide text beside a SMILES is read from it. 2Nal = N[C@@H](Cc1ccc2ccccc2c1)C(=O)O; CH2 = C([*:1])[*:2]
# Legend:
# DOR [1] = biological target: T1, DOR (Rattus norvegicus, UniProt P33533); type: cell-based
# T1 sequence (P33533 whole entry): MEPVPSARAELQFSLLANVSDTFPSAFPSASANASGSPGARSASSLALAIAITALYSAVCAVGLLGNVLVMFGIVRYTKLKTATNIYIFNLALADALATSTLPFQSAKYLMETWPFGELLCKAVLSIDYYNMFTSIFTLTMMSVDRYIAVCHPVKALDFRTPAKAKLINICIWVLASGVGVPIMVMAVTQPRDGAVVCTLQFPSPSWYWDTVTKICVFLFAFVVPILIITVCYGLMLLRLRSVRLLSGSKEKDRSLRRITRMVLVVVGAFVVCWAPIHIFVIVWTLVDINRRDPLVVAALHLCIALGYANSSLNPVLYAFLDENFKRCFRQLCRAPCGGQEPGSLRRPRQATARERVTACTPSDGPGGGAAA
# MOR = MOR (Rattus norvegicus, UniProt P33535); experiment: [35S]GTPγS binding assay, C6-MOR membranes; type: biochemical; conditions: [35S]GTPγS assay
# Sequence of MOR (P33535 whole entry): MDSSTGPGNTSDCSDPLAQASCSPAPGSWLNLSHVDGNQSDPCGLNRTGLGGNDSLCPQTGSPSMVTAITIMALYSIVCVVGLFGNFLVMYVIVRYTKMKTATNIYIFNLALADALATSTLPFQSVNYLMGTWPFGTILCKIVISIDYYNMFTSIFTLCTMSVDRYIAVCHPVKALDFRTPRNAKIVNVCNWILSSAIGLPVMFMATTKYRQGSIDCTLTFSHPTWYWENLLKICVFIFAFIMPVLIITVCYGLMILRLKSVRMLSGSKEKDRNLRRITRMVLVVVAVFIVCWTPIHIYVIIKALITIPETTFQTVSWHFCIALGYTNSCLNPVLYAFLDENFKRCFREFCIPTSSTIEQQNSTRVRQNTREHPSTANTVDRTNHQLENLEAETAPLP
# DOR [2] = biological target: T1, DOR; experiment: [35S]GTPγS binding assay, C6-DOR membranes; type: biochemical; conditions: [35S]GTPγS assay
# KOR = KOR (Homo sapiens, UniProt P41145); experiment: [35S]GTPγS binding assay, CHO-KOR membranes; type: biochemical; conditions: [35S]GTPγS assay
# Sequence of KOR (P41145 whole entry): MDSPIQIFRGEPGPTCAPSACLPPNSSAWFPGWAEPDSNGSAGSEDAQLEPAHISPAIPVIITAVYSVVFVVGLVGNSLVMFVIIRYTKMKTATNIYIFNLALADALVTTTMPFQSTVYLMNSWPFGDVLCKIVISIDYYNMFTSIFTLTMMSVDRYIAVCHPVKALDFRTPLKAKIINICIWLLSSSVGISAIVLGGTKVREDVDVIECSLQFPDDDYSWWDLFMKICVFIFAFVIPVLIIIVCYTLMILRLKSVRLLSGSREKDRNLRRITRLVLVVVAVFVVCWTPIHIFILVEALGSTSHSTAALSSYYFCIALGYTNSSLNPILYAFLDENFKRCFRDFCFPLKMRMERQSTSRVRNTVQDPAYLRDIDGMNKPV
# DOR [3] = biological target: T1, DOR; experiment: Antagonism of SNC80-stimulated [35S]GTPγS binding in C6-DOR; type: biochemical
structure (smiles),measurement,setting,value
Oc1ccc2c3c1O[C@H]1c4[nH]c5ccccc5c4C[C@@]4(O)[C@@H](C2)N(CC2CC2)CC[C@]314 [naltrindole],activity in adenylyl cyclase inhibition assay,DOR [1],without effect; also recorded: did not inhibit cAMP accumulation
"NC(=O)[C@@H]1CSCSC[C@@H](NC(=O)[C@@H](N)Cc2ccc(O)cc2)C(=O)N[C@@H](Cc2ccccc2)C(=O)N[C@@H](Cc2ccc3ccccc3c2)C(=O)N1 [compound 9, Tyr-c(S-CH2-S)[D-Cys-Phe-2-Nal-Cys]NH2] (H-Y[dC]F[2Nal]C-NH2; linker 2-5 via CH2; N-terminus assumed)",efficacy profile at MOR,MOR,full agonist
same,efficacy profile at DOR,DOR [2],essentially as antagonists
same,efficacy profile at KOR,KOR,full agonist
same,Kb,DOR [3],48 ± 9.5 nM
same,activity in adenylyl cyclase inhibition assay,DOR [1]; C6-DOR cells,partial agonist
same,calculated maximal inhibition of adenylyl cyclase,"DOR [1]; calculated maximum, 5 µM forskolin-stimulated, C6-DOR cells",43 ± 9.0%
"C=CCN1C[C@H](C)N([C@H](c2ccc(C(=O)N(CC)CC)cc2)c2cccc(OC)c2)C[C@H]1C [SNC80, 4-[(R)-[(2S,5R)-4-allyl-2,5-dimethylpiperazin-1-yl](3-methoxyphenyl)methyl]-N,N-diethylbenzamide]",calculated maximal inhibition of adenylyl cyclase,DOR [1],76 ± 8.8%
